Measurements reported in patent US5534508A, “Cephem compounds and antimicrobial agents” (Katayama Seiyakusyo Co., Ltd., priority 1993, dated 1996).
Values after ≈ are worked out from the molar mass of the structure shown.

Experiments:
Assay type in all cases: cell-based
P. aeruginosa NCTC 10490 = assay: MIC against standard strains (Table 1), P. aeruginosa NCTC 10490; conditions: Pseudomonas aeruginosa, NCTC10490, Muller-Hinton agar, overnight 37° C., read-out: MIC (minimum growth inhibitory concentration)
Protocol: (§1) The minimum growth inhibitory concentration (MIC, μg/ml) of the compounds for each of the 25 standard laboratory strains (standard strains) shown in Table 1 was determined in accordance with the standard method of the Japan Chemotherapical Society (Chemotherapy, 29, 76-79 (1981) under "Re-revision of the measuring methods of minimum growth inhibitory concentration (MIC)").
(§2) That is, by using each test strain cultured overnight at 37° C. in a Muller-Hinton broth, there was prepared a bacterial solution with a cell density of 1×10^6 CFU/ml in the same broth. The bacterial solution was inoculated into the Muller-Hinton agar media each containing respectively one test agent (i.e., compound) and, after overnight incubation at 37° C., the minimum concentration that inhibited growth of the bacteria was determined and expressed as MIC.
(§3) Staphylococcus aureus 167 and Staphylococcus aureus 195 used in the test were MRSA. CTM (cefotiam) and FMOX (flomoxef) were used as the control agents.

P. mirabilis IFO 3849 = assay: MIC against standard strains (Table 1), P. mirabilis IFO 3849; conditions: Proteus mirabilis, IFO3849, Muller-Hinton agar, overnight 37° C., read-out: MIC (minimum growth inhibitory concentration)
Protocol: as §1, §2, §3

E. cloacae Nek39 = assay: MIC against standard strains (Table 1), E. cloacae Nek39; conditions: Enterobacter cloacae, Muller-Hinton agar, overnight 37° C., read-out: MIC (minimum growth inhibitory concentration)
Protocol: as §1, §2, §3

S. aureus 195 = assay: MIC against standard strains (Table 1), S. aureus 195 (MRSA); conditions: Staphylococcus aureus, Muller-Hinton agar, overnight 37° C., read-out: MIC (minimum growth inhibitory concentration)
Protocol: as §1, §2, §3

P. aeruginosa AKR17 = assay: MIC against standard strains (Table 1), P. aeruginosa AKR17; conditions: Pseudomonas aeruginosa, Muller-Hinton agar, overnight 37° C., read-out: MIC (minimum growth inhibitory concentration)
Protocol: as §1, §2, §3

M. luteus ATCC 9341 = assay: MIC against standard strains (Table 1), M. luteus ATCC 9341; conditions: Micrococcus luteus, ATCC9341, Muller-Hinton agar, overnight 37° C., read-out: MIC (minimum growth inhibitory concentration)
Protocol: as §1, §2, §3

E. coli CSH2(RK1) = assay: MIC against standard strains (Table 1), E. coli CSH2(RK1); conditions: Escherichia coli, read-out: MIC (minimum growth inhibitory concentration)
Protocol: as §1, §2, §3

A. faecalis ATCC 3750 = assay: MIC against standard strains (Table 1), A. faecalis ATCC 3750; conditions: Alcaligenes faecalis, ATCC3750, Muller-Hinton agar, overnight 37° C., read-out: MIC (minimum growth inhibitory concentration)
Protocol: as §1, §2, §3

M. morganii IFO 3848 = assay: MIC against standard strains (Table 1), M. morganii IFO 3848; conditions: Morganella morganii, IFO3848, Muller-Hinton agar, overnight 37° C., read-out: MIC (minimum growth inhibitory concentration)
Protocol: as §1, §2, §3

S. marcescens No. 16-2 = assay: MIC against standard strains (Table 1), S. marcescens No. 16-2; conditions: Serratia marcescens, NO.162, Muller-Hinton agar, overnight 37° C., read-out: MIC (minimum growth inhibitory concentration)
Protocol: as §1, §2, §3

E. coli JC-2 = assay: MIC against standard strains (Table 1), E. coli JC-2; conditions: Escherichia coli, JC2, Muller-Hinton agar, overnight 37° C., read-out: MIC (minimum growth inhibitory concentration)
Protocol: as §1, §2, §3

K. pneuminiae No. 42 = assay: MIC against standard strains (Table 1), K. pneuminiae No. 42; conditions: Muller-Hinton agar, overnight 37° C., read-out: MIC (minimum growth inhibitory concentration)
Protocol: as §1, §2, §3

C. freundii ATCC 8090 = assay: MIC against standard strains (Table 1), C. freundii ATCC 8090; conditions: Citrobacter freundii, ATCC8090, Muller-Hinton agar, overnight 37° C., read-out: MIC (minimum growth inhibitory concentration)
Protocol: as §1, §2, §3

S. aureus Smith = assay: MIC against standard strains (Table 1), S. aureus Smith; conditions: Staphylococcus aureus, Muller-Hinton agar, overnight 37° C., read-out: MIC (minimum growth inhibitory concentration)
Protocol: as §1, §2, §3

P. vulugaris OX-19 = assay: MIC against standard strains (Table 1), P. vulugaris OX-19; conditions: Muller-Hinton agar, overnight 37° C., read-out: MIC (minimum growth inhibitory concentration)
Protocol: as §1, §2, §3

K. pneuminiae IFO 3317 = assay: MIC against standard strains (Table 1), K. pneuminiae IFO 3317; conditions: Muller-Hinton agar, overnight 37° C., read-out: MIC (minimum growth inhibitory concentration)
Protocol: as §1, §2, §3

S. aureus 209p JC-1 = assay: MIC against standard strains (Table 1), S. aureus 209p JC-1; conditions: Staphylococcus aureus, Muller-Hinton agar, overnight 37° C., read-out: MIC (minimum growth inhibitory concentration)
Protocol: as §1, §2, §3

S. aureus 167 = assay: MIC against standard strains (Table 1), S. aureus 167 (MRSA); conditions: Staphylococcus aureus, Muller-Hinton agar, overnight 37° C., read-out: MIC (minimum growth inhibitory concentration)
Protocol: as §1, §2, §3

S. marcescens IAM 1184 = assay: MIC against standard strains (Table 1), S. marcescens IAM 1184; conditions: Serratia marcescens, IAM1184, Muller-Hinton agar, overnight 37° C., read-out: MIC (minimum growth inhibitory concentration)
Protocol: as §1, §2, §3

E. cloacae ATCC 13407 = assay: MIC against standard strains (Table 1), E. cloacae ATCC 13407; conditions: Enterobacter cloacae, ATCC13407, Muller-Hinton agar, overnight 37° C., read-out: MIC (minimum growth inhibitory concentration)
Protocol: as §1, §2, §3

B. subtilis ATCC 6633 = assay: MIC against standard strains (Table 1), B. subtilis ATCC 6633; conditions: Bacillus subtilis, ATCC6633, Muller-Hinton agar, overnight 37° C., read-out: MIC (minimum growth inhibitory concentration)
Protocol: as §1, §2, §3

S. epidemidis IAM 1296 = assay: MIC against standard strains (Table 1), S. epidemidis IAM 1296; conditions: Muller-Hinton agar, overnight 37° C., read-out: MIC (minimum growth inhibitory concentration)
Protocol: as §1, §2, §3

P. cepacia CN 9113 = assay: MIC against standard strains (Table 1), P. cepacia CN 9113; conditions: Burkholderia cepacia, CN9113, Muller-Hinton agar, overnight 37° C., read-out: MIC (minimum growth inhibitory concentration)
Protocol: as §1, §2, §3

A. calcoaceticos T59 = assay: MIC against standard strains (Table 1), A. calcoaceticos T59; conditions: Muller-Hinton agar, overnight 37° C., read-out: MIC (minimum growth inhibitory concentration)
Protocol: as §1, §2, §3

E. coli CSH2(RE45) = assay: MIC against standard strains (Table 1), E. coli CSH2(RE45); conditions: Escherichia coli, read-out: MIC (minimum growth inhibitory concentration)
Protocol: as §1, §2, §3

clinically isolated MRSA = assay: Antibacterial potency against clinically isolated MRSA (47 strains); conditions: Staphylococcus aureus; for MIC50: concentration inhibiting growth of 50% of 47 clinically isolated MRSA strains; for MIC90: concentration inhibiting growth of 90% of 47 clinically isolated MRSA strains
Protocol: A test on the antibacterial potency against clinically isolated MRSA was conducted in the following way.
That is, using 47 strains of clinically isolated MRSA, MIC was determined for each of the test strains in accordance with the standard method of the Japan Chemotherapical Society as in Test Example 1, and the minimum growth inhibitory concentration which inhibited growth of 50% of the strains tested was expressed as MIC50 (μg/ml), and the minimum growth inhibitory concentration which inhibited growth of 90% of the strains tested was expressed as MIC90 (μg/ml).
In this test, FMOX was used as the control agent.

Row | SMILES | MIC (P. aeruginosa NCTC 10490) | MIC (P. mirabilis IFO 3849) | MIC (E. cloacae Nek39) | MIC (S. aureus 195) | MIC (P. aeruginosa AKR17) | MIC (M. luteus ATCC 9341) | MIC (E. coli CSH2(RK1)) | MIC (A. faecalis ATCC 3750) | MIC (M. morganii IFO 3848) | MIC (S. marcescens No. 16-2) | MIC (E. coli JC-2) | MIC (K. pneuminiae No. 42) | MIC (C. freundii ATCC 8090) | MIC (S. aureus Smith) | MIC (P. vulugaris OX-19) | MIC (K. pneuminiae IFO 3317) | MIC (S. aureus 209p JC-1) | MIC (S. marcescens IAM 1184) | MIC (E. cloacae ATCC 13407) | MIC (B. subtilis ATCC 6633) | other results
1 | Nc1nc(/C(=N/O)C(=O)N[C@@H]2C(=O)N3C(C(=O)[O-])=C(/C=C/C[n+]4cccc(-c5csc(N)n5)c4)CS[C@H]23)cs1 [Compound 12, 7β-[2-(2-aminothiazol-4-yl)-2-syn-hydroxyiminoacetamido]-3-[(E)-3-[3-(2-aminothiazol-4-yl)pyridinio]-1-propenyl]-3-cephem-4-carboxylate] | 3.13 µg/mL (≈ 5.35 µM) | 0.1 µg/mL (≈ 0.171 µM) | 6.25 µg/mL (≈ 10.7 µM) | 1.56 µg/mL (≈ 2.67 µM) | > 100 µg/mL | 0.05 µg/mL (≈ 0.0855 µM) | 0.2 µg/mL (≈ 0.342 µM) | 1.56 µg/mL (≈ 2.67 µM) | 0.025 µg/mL (≈ 0.0428 µM) | 12.5 µg/mL (≈ 21.4 µM) | 0.05 µg/mL (≈ 0.0855 µM) | 0.1 µg/mL (≈ 0.171 µM) | 0.05 µg/mL (≈ 0.0855 µM) | 0.1 µg/mL (≈ 0.171 µM) | 0.05 µg/mL (≈ 0.0855 µM) | 0.05 µg/mL (≈ 0.0855 µM) | 0.1 µg/mL (≈ 0.171 µM) | 0.1 µg/mL (≈ 0.171 µM) | 0.39 µg/mL (≈ 0.667 µM) | 0.2 µg/mL (≈ 0.342 µM) | MIC (S. aureus 167): 25 µg/mL (≈ 42.8 µM); MIC (S. epidemidis IAM 1296): 0.05 µg/mL (≈ 0.0855 µM); MIC (P. cepacia CN 9113): > 100 µg/mL; MIC (A. calcoaceticos T59): 12.5 µg/mL (≈ 21.4 µM); MIC (E. coli CSH2(RE45)): 0.1 µg/mL (≈ 0.171 µM)
2 | NC(=O)Nc1ccc[n+](C/C=C/C2=C(C(=O)[O-])N3C(=O)[C@@H](NC(=O)/C(=N\O)c4csc(N)n4)[C@H]3SC2)c1 [Compound 13, 7β-[2-(2-aminothiazol-4-yl)-2-syn-hydroxyiminoacetamido]-3-[(E)-3-(3-ureidopyridinio) -1-propenyl]-3-cephem-4-carboxylate] | 1.56 µg/mL (≈ 2.86 µM) | 0.05 µg/mL (≈ 0.0918 µM) | 6.25 µg/mL (≈ 11.5 µM) | 1.56 µg/mL (≈ 2.86 µM) | > 100 µg/mL | 0.05 µg/mL (≈ 0.0918 µM) | 0.05 µg/mL (≈ 0.0918 µM) | 0.78 µg/mL (≈ 1.43 µM) | 0.025 µg/mL (≈ 0.0459 µM) | 6.25 µg/mL (≈ 11.5 µM) | 0.025 µg/mL (≈ 0.0459 µM) | 0.05 µg/mL (≈ 0.0918 µM) | 0.025 µg/mL (≈ 0.0459 µM) | 0.2 µg/mL (≈ 0.367 µM) | 0.05 µg/mL (≈ 0.0918 µM) | 0.025 µg/mL (≈ 0.0459 µM) | 0.1 µg/mL (≈ 0.184 µM) | 0.05 µg/mL (≈ 0.0918 µM) | 0.1 µg/mL (≈ 0.184 µM) | 0.2 µg/mL (≈ 0.367 µM) | MIC50 (clinically isolated MRSA): 0.83 µg/mL (≈ 1.52 µM); MIC90 (clinically isolated MRSA): 5.08 µg/mL (≈ 9.33 µM); MIC (S. aureus 167): 12.5 µg/mL (≈ 23 µM); MIC (S. epidemidis IAM 1296): 0.025 µg/mL (≈ 0.0459 µM); MIC (P. cepacia CN 9113): > 100 µg/mL; MIC (A. calcoaceticos T59): 3.13 µg/mL (≈ 5.75 µM); MIC (E. coli CSH2(RE45)): 0.05 µg/mL (≈ 0.0918 µM)
3 | CO[C@@]1(NC(=O)CSC(F)F)C(=O)N2C(C(=O)O)=C(CSc3nnnn3CCO)CO[C@@H]21 [FMOX, flomoxef, reference compound] | > 100 µg/mL | 0.2 µg/mL (≈ 0.403 µM) | 100 µg/mL (≈ 201 µM) | 3.13 µg/mL (≈ 6.3 µM) | > 100 µg/mL | 0.1 µg/mL (≈ 0.201 µM) | 0.1 µg/mL (≈ 0.201 µM) | 0.1 µg/mL (≈ 0.201 µM) | 0.39 µg/mL (≈ 0.786 µM) | 100 µg/mL (≈ 201 µM) | 0.1 µg/mL (≈ 0.201 µM) | 0.1 µg/mL (≈ 0.201 µM) | 0.2 µg/mL (≈ 0.403 µM) | 0.39 µg/mL (≈ 0.786 µM) | 0.39 µg/mL (≈ 0.786 µM) | 0.05 µg/mL (≈ 0.101 µM) | 0.39 µg/mL (≈ 0.786 µM) | 0.2 µg/mL (≈ 0.403 µM) | 100 µg/mL (≈ 201 µM) | 0.2 µg/mL (≈ 0.403 µM) | MIC50 (clinically isolated MRSA): 5.13 µg/mL (≈ 10.3 µM); MIC90 (clinically isolated MRSA): 32.1 µg/mL (≈ 64.6 µM); MIC (S. epidemidis IAM 1296): 0.2 µg/mL (≈ 0.403 µM); MIC (P. cepacia CN 9113): 100 µg/mL (≈ 201 µM); MIC (A. calcoaceticos T59): 100 µg/mL (≈ 201 µM); MIC (E. coli CSH2(RE45)): 0.1 µg/mL (≈ 0.201 µM)
